# Measured values reported in US20230365546A1, “5-SUBSTITUTED INDOLE 3-AMIDE DERIVATIVES, PREPARATION METHOD AND USE THEREOF” (ORIGIANT PHARMACEUTICAL CO., LTD, priority 2020, published 2023).
# What was measured:
# [1] = target: PAK1(h) (Homo sapiens (Human), UniProt Q13153); test: Kinase Profiler 10 μM panel
# Method: (§1) In vitro kinase assays were conducted using Kinase Profiler services provided by Eurofins. The experimental method was as follows: the small molecule compound to be tested (0.001-10 μM), the protein kinase to be tested were incubated with a buffer containing substrate, 10 mM magnesium acetate, and [γ-^33P-ATP], the reaction was started by adding Mg\TPmix, after incubation for a period of time at room temperature, a 3% phosphate solution was added to the buffer to stop the reaction. Subsequently, 10 μL of the reaction mixture was quantitatively pipetted onto P30 filter paper, which was washed three times with 75 mM phosphate solution and then once with methanol. The P30 filter paper was air-dried and scintillation fluid was added for scintillation counting.
# [2] = target: Lck(h) activated (Homo sapiens (Human), UniProt P06239); test: Kinase Profiler 10 μM panel
# Method: as §1
# [3] = target: Mnk2(h) (Homo sapiens (Human), UniProt Q9HBH9); test: Kinase Profiler 10 μM panel
# Method: as §1
# [4] = target: BMPR2(h) (Homo sapiens (Human), UniProt Q13873); test: Kinase Profiler 10 μM panel
# Method: as §1
# [5] = target: MKK6(h) (Homo sapiens (Human), UniProt P52564); test: Kinase Profiler 10 μM panel
# Method: as §1
# [6] = target: Fer(h) (Homo sapiens (Human), UniProt P16591); test: Kinase Profiler 10 μM panel
# Method: as §1
# [7] = target: CDKL4(h) (Homo sapiens (Human), UniProt Q5MAI5); test: Kinase Profiler 10 μM panel
# Method: as §1
# [8] = target: MST2(h) (Homo sapiens (Human), UniProt Q13188); test: Kinase Profiler 10 μM panel
# Method: as §1
# [9] = target: CHK2(h) (Homo sapiens (Human), UniProt O96017); test: Kinase Profiler 10 μM panel
# Method: as §1
# [10] = target: NEK4(h) (Homo sapiens (Human), UniProt P51957); test: Kinase Profiler 10 μM panel
# Method: as §1
# [11] = target: Ret(h) (Homo sapiens (Human), UniProt P07949); test: Kinase Profiler 10 μM panel
# Method: as §1
# [12] = target: PrKX(h) (Homo sapiens (Human), UniProt P51817); test: Kinase Profiler 10 μM panel
# Method: as §1
# [13] = target: Src(1-530)(h) (Homo sapiens (Human), UniProt P12931); test: Kinase Profiler 10 μM panel
# Method: as §1
# [14] = target: IGF-1R(h) (Homo sapiens (Human), UniProt P08069); test: Kinase Profiler 10 μM panel
# Method: as §1
# [15] = target: STK25(h) (Homo sapiens (Human), UniProt O00506); test: Kinase Profiler 10 μM panel
# Method: as §1
# [16] = target: Met(Y1248H)(h) (Homo sapiens (Human), UniProt P08581, Y1230H); test: Kinase Profiler 10 μM panel
# Method: as §1
# [17] = target: NEK3(h) (Homo sapiens (Human), UniProt P51956); test: Kinase Profiler 10 μM panel
# Method: as §1
# [18] = target: FGFR4(h) (Homo sapiens (Human), UniProt P22455); test: Kinase Profiler 10 μM panel
# Method: as §1
# [19] = target: ALK(h) (Homo sapiens (Human), UniProt Q9UM73); test: Kinase Profiler 10 μM panel
# Method: as §1
# [20] = target: RIPK2(h) (Homo sapiens (Human), UniProt O43353); test: Kinase Profiler 10 μM panel
# Method: as §1
# [21] = target: Ret (V804L)(h) (Homo sapiens (Human), UniProt P07949, V804L); test: Kinase Profiler 10 μM panel
# Method: as §1
# [22] = target: PI3 Kinase (p110a(E545K)/p85a)(m) (Mus musculus (Mouse), UniProt P42337, E545K); test: Kinase Profiler 10 μM panel
# Method: as §1
# [23] = In vivo pharmacokinetic study in rats; details: rat, plasma, oral, 10 mg/kg
# Method: Blood was collected from rats at different times after administration at the following time points: 0.083 h, 0.25 h, 0.5 h, 1 h, 2 h, 4 h, 8 h, and 24 h after intravenous administration; 0.25 h, 0.5 h, 1 h, 2 h, 4 h, 6 h, 8 h, and 24 h after oral administration. About 0.20 mL of blood was collected via jugular vein or other suitable means for each sample at the corresponding time, with heparin sodium for anticoagulation; the blood sample was placed on ice after collection and centrifuged within 1 h to separate the plasma (centrifugation conditions: centrifugal force 6800 g, 6 min, 2-8° C.). The collected plasma samples were stored in a refrigerator at −80° C. before analysis, and the remaining plasma samples continued to be temporarily stored in the refrigerator at −80° C. for one month after analysis.
# Pharmacokinetic parameters such as AUC (0-t), T1/2, Cmax, Tmax, and MRT were calculated using WinNonlin based on plasma concentration data at different time points. The plasma drug concentration-time curve was plotted with BLQ recorded as 0. For the calculation of pharmacokinetic parameters, the concentration before administration was calculated as 0; BLQ before Cmax (including “No peak”) was calculated as 0; no BLQ (including “No peak”) appeared after Cmax participated in the calculation. The experiment was completed by Shanghai Medicilon Inc.
# [24] = target: LKB1(h) (Homo sapiens (Human), UniProt Q15831); test: Kinase Profiler 10 μM panel
# Method: as §1
# [25] = target: CDK12/cyclinK(h) (Homo sapiens (Human), UniProt Q9NYV4); test: Kinase Profiler 10 μM panel
# Method: as §1
# [26] = target: EphA5(h) (Homo sapiens (Human), UniProt P54756); test: Kinase Profiler 10 μM panel
# Method: as §1
# [27] = target: Tie2(R849W)(h) (Homo sapiens (Human), UniProt Q02763, R849W); test: Kinase Profiler 10 μM panel
# Method: as §1
# MST2(h), sequence (Q13188 whole entry): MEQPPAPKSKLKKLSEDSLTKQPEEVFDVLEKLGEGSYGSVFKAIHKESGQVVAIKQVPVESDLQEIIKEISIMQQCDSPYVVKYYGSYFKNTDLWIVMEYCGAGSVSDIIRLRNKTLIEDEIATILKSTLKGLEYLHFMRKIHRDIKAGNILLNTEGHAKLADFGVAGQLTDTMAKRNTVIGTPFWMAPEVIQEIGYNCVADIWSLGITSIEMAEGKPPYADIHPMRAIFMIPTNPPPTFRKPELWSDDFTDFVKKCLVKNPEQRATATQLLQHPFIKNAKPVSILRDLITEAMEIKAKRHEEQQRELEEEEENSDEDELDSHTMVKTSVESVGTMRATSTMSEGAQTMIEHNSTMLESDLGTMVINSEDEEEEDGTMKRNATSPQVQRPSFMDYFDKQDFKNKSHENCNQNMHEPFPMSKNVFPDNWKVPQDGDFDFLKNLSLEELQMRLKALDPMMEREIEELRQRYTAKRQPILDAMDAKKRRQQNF
# IGF-1R(h), sequence (P08069 31-1367): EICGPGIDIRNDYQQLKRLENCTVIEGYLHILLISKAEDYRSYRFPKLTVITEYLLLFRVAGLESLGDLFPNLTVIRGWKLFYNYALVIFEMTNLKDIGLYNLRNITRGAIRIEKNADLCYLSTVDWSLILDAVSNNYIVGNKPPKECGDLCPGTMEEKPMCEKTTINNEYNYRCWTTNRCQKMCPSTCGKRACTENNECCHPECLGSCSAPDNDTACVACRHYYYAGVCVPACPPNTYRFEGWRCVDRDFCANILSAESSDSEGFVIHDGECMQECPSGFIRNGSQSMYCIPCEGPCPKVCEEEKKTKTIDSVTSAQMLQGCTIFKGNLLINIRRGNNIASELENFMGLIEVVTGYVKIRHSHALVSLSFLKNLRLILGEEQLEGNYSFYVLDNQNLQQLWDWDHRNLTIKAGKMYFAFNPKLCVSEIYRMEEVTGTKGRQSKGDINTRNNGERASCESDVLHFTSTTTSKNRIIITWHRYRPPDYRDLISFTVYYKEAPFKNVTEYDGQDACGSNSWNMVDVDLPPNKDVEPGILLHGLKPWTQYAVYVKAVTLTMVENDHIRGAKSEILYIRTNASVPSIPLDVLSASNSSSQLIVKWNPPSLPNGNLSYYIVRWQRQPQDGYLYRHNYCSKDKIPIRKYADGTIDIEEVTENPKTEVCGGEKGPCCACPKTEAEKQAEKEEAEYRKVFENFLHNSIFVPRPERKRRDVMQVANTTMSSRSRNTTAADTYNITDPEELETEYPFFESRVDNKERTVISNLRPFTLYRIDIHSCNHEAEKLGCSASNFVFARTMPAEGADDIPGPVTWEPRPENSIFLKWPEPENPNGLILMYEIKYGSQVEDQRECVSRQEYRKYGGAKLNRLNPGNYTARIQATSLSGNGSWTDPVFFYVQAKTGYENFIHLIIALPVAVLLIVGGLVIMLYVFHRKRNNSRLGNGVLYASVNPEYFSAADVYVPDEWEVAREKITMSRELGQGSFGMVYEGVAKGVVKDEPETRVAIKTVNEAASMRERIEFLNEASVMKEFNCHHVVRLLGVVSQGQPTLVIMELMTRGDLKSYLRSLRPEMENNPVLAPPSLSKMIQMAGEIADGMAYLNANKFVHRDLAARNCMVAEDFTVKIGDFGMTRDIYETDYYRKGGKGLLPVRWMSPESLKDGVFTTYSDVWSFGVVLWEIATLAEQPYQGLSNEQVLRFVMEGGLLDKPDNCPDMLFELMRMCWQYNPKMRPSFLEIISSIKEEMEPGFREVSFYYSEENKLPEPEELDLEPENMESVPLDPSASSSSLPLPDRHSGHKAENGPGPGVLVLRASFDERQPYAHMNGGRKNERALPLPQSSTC
# STK25(h), sequence (O00506 whole entry): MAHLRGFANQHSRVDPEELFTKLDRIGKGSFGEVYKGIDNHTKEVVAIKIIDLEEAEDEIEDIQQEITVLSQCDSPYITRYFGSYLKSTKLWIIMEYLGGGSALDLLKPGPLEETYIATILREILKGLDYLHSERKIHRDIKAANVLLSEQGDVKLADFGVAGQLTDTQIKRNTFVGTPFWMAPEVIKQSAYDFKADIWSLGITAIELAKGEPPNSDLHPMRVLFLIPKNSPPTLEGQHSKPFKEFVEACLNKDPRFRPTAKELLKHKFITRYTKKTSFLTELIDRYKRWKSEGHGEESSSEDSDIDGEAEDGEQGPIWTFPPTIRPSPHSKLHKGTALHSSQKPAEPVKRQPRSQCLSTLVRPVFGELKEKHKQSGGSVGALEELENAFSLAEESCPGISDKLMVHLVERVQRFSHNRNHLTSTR
# RIPK2(h), sequence (O43353 whole entry): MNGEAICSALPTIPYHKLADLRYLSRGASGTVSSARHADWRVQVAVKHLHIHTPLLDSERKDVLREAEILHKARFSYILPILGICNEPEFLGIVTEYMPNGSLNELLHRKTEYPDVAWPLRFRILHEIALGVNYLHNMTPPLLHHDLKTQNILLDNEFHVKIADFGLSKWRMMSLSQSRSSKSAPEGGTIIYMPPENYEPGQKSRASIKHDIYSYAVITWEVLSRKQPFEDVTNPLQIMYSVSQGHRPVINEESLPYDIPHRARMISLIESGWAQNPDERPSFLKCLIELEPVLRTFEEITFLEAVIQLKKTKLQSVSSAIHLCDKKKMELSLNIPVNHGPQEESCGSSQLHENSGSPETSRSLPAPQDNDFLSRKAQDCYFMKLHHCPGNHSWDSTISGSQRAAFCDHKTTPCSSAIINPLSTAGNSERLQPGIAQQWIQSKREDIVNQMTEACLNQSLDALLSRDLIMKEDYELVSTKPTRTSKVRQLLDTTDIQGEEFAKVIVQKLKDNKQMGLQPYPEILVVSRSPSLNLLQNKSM
# Ret(h), sequence (P07949 29-1114): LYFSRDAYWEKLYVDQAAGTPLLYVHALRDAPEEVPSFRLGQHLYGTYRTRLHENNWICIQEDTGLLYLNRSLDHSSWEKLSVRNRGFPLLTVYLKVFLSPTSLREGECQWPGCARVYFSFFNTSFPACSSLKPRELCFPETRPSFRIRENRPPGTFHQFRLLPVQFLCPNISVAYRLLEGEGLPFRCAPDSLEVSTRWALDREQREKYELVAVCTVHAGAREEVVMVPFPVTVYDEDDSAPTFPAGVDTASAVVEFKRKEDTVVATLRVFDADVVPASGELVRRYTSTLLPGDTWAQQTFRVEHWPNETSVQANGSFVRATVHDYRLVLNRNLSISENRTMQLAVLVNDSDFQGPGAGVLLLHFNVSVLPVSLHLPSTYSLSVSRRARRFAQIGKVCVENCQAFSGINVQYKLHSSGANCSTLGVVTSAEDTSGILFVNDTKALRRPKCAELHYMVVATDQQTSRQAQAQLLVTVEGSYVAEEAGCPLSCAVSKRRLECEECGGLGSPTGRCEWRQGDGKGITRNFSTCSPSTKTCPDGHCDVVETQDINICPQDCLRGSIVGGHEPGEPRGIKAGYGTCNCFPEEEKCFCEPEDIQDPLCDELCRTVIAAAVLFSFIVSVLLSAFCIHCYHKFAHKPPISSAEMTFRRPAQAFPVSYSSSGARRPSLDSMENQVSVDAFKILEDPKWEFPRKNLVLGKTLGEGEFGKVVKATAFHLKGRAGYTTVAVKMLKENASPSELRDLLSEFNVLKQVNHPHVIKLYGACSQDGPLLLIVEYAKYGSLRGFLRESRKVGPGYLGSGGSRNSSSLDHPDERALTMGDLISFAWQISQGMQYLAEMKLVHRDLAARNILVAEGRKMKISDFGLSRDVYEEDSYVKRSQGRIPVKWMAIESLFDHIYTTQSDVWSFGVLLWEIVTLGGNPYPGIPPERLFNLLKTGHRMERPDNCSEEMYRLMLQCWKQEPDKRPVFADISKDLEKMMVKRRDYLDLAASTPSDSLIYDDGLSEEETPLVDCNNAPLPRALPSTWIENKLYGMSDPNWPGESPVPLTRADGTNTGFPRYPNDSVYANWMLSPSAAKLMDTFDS
# NEK3(h), sequence (P51956 whole entry): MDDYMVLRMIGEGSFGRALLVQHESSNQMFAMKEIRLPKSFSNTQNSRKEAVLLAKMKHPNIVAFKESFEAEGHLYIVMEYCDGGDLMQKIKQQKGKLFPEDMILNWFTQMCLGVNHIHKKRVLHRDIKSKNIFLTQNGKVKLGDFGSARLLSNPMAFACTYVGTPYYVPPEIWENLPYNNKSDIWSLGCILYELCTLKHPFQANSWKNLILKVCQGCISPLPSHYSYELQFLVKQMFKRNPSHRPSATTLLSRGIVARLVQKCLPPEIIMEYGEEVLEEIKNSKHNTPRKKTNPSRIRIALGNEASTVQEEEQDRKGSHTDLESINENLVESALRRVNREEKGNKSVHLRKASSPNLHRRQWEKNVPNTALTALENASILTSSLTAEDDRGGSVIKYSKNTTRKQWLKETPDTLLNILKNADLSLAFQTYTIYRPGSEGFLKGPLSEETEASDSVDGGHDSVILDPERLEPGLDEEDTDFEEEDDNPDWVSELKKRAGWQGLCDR
# Lck(h) activated, sequence (P06239 whole entry): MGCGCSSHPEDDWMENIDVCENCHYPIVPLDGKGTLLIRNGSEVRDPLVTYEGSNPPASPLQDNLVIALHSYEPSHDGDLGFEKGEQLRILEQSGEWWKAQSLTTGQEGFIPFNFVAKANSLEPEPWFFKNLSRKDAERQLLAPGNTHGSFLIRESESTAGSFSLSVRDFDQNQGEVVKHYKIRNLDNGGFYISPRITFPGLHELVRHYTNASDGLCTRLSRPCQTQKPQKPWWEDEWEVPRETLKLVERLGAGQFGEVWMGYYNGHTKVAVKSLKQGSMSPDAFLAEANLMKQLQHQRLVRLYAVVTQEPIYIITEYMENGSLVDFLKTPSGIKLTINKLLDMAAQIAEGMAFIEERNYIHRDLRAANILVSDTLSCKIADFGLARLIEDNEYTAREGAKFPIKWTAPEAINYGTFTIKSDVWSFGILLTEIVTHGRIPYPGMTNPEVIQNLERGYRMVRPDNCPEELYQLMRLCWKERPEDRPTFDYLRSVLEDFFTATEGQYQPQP
# Ret (V804L)(h), sequence (P07949 29-1114 V804L): as the sequence (P07949 29-1114) above, with V776L counted along it
compound,measurement,setting,value
"C[C@H](NC(=O)c1c[nH]c2ccc(-c3ccc4nc(NC(=O)C5CC5)sc4c3)cc12)c1cccc(F)c1 [Compound 34, (S)-5-(2-(cyclopropanecarboxamido)benzo[d]thiazol-6-yl)-N-(1-(3-fluorophenyl)ethyl)-1H-indole-3-carboxamide]",Inhibition ratio,[1],4%
same,Inhibition ratio,[2],76%
same,Inhibition ratio,[3],38%
same,Inhibition ratio,[4],30%
same,Inhibition ratio,[5],7%
same,Inhibition ratio,[6],62%
same,Inhibition ratio,[7],56%
same,Inhibition ratio,[8],−9%
same,Inhibition ratio,[9],22%
same,Inhibition ratio,[10],30%
same,Inhibition ratio,[11],96%
same,Inhibition ratio,[12],6%
same,Inhibition ratio,[13],54%
same,Inhibition ratio,[14],28%
same,Inhibition ratio,[15],2%
same,Inhibition ratio,[16],107%
same,Inhibition ratio,[17],10%
same,Inhibition ratio,[18],5%
same,Inhibition ratio,[19],48%
same,Inhibition ratio,[20],67%
same,Inhibition ratio,[21],99%
same,Inhibition ratio,[22],24%
same,AUC(0-t),[23],4450 ng·h/mL
same,Cmax,[23],852 ng/mL
same,Tmax,[23],4 h
same,bioavailability,[23],7.89%
same,half-life,[23],2.06 h
same,Inhibition ratio,[24],6%
same,Inhibition ratio,[25],21%
same,Inhibition ratio,[26],40%
same,Inhibition ratio,[27],86%
"C[C@H](NC(=O)c1cn(C)c2ccc(-c3ccn4nc(NC(=O)C5CC5)nc4c3)cc12)c1cccc(F)c1 [Compound 94, (S)-5-(2-(cyclopropanecarboxamido)-[1,2,4]triazolo[1,5-a]pyridin-7-yl)-N-(1-(3-fluorophenyl)ethyl)-1-methyl-1H-indole-3-carboxamide]",Inhibition ratio/%,[1],18%
same,Inhibition ratio/%,[2],46%
same,Inhibition ratio/%,[3],51%
same,Inhibition ratio/%,[4],−6%
same,Inhibition ratio/%,[5],30%
same,Inhibition ratio/%,[6],10%
same,Inhibition ratio/%,[7],76%
same,Inhibition ratio/%,[8],−14%
same,Inhibition ratio/%,[9],8%
same,Inhibition ratio/%,[10],27%
same,Inhibition ratio/%,[11],50%
same,Inhibition ratio/%,[12],−10%
same,Inhibition ratio/%,[13],20%
same,Inhibition ratio/%,[14],−4%
same,Inhibition ratio/%,[15],26%
same,Inhibition ratio/%,[16],−11%
same,Inhibition ratio/%,[17],14%
same,Inhibition ratio/%,[18],37%
same,Inhibition ratio/%,[19],−7%
same,Inhibition ratio/%,[20],−7%
same,Inhibition ratio/%,[21],50%
same,Inhibition ratio/%,[22],32%
same,AUC(0-t),[23],1850 ng·h/mL
same,Cmax,[23],330 ng/mL
same,Tmax,[23],1.67 h
same,bioavailability,[23],12.1%
same,half-life,[23],7.02 h
same,Inhibition ratio/%,[24],55%
same,Inhibition ratio/%,[25],−8%
same,Inhibition ratio/%,[26],4%
same,Inhibition ratio/%,[27],16%
